Reference: US20200109126A1 (priority 2017, published 2020)
“Also recorded” adds a separate entry of the source.

Key:
μOR [1] = biological target: T1, μOR (Homo sapiens, UniProt P35372); assay: biochemical; format: binding; set-up: expressed in transfected cells; host or cells: HEK293 membranes (Ki); Sf9 insect cell membranes (single-point screen); PDSP for analogs
Method: For a primary screen of selected molecules, binding to OR was assessed by measuring competition against the radioligand ^3H-diprenorphine (^3H-DPN). […] The reaction contained 40 fmol of μOR and was incubated in a buffer of 20 mM HEPES pH 7.5, 100 mM sodium chloride, and 0.1% bovine serum albumin for 1 hour at 25° C. To separate free from bound radioligand, reactions were rapidly filtered over Whatman GF/B filters with the aid of a Brandel harvester and ^3H-DPN counts were measured by liquid scintillation.

C57BL/6J mice = assay: Accumulated fecal boli quantification (constipation); settings: PZM21 20 mg/kg, morphine 10 mg/kg
κOR = biological target: T2, κOR (Homo sapiens, UniProt P41145); assay: Radioligand binding at κOR (PDSP); settings: Ki (nM) κOR
T2 construct: NIMH Psychoactive Drug Screening Program (PDSP)
T2 sequence (P41145 whole entry): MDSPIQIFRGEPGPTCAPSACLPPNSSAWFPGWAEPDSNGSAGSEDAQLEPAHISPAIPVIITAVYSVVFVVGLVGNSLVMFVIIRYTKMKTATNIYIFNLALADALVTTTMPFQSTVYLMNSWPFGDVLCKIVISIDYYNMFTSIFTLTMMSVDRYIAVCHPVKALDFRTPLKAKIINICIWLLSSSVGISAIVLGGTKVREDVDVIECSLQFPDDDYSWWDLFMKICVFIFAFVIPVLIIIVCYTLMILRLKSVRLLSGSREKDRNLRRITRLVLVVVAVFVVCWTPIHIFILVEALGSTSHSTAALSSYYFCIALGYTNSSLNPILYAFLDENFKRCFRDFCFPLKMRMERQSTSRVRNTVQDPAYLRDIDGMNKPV

μOR [2] = biological target: T1, μOR; assay: Calcium release (FLIPR); format: cell-based; set-up: expressed in transfected cells
Method: Calcium release was measured using a FLIPR^TETRA fluorescence imaging plate reader (Molecular Devices). Calcium release experiments were run in parallel to Gi/o Glosensor experiments with the same HEKT cells transfected with μOR, except cells for FLIPR were plated in poly-lysine coated 384-well black clear bottom cell culture plates. Cells were incubated at 37° C. with 5% CO2 overnight, and next day, media was decanted and replaced with Fluo-4 direct calcium dye (Life Technologies) made up in HBSS with 20 mM HEPES, pH 7.4. Dye was incubated for 1 hour at 37° C. Afterwards, cells were equilibrated to room temperature, and fluorescence in each well was read for the initial 10 seconds to establish a baseline. Afterwards, 10 μL of drug (3×) was added per well and the maximum-fold increase in fluorescence was determined as fold-over-baseline. Drug solutions used for the FLIPR assay were exactly the same as used for Gi/o Glosensor experiments. To activate endogenous Gq-coupled receptors as a positive control for calcium release, TFLLR-NH2 (10 μM, PAR-1 selective agonist) was used.

nociceptin receptor = biological target: T3, nociceptin receptor (Homo sapiens, UniProt P41146); assay: Gi/o Glosensor assay at nociceptin receptor; format: cell-based
T3 construct: NIMH Psychoactive Drug Screening Program (PDSP)
T3 sequence (P41146 whole entry): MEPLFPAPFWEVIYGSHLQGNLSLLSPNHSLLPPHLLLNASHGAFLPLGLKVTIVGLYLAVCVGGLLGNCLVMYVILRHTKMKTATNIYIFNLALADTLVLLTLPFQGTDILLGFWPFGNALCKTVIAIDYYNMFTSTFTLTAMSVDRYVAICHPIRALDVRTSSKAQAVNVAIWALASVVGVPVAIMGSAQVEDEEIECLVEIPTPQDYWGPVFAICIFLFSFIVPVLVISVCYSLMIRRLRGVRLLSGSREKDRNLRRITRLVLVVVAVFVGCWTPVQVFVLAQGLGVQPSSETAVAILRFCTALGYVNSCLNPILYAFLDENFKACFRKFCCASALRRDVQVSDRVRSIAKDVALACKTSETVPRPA

T1 sequence (P35372 whole entry): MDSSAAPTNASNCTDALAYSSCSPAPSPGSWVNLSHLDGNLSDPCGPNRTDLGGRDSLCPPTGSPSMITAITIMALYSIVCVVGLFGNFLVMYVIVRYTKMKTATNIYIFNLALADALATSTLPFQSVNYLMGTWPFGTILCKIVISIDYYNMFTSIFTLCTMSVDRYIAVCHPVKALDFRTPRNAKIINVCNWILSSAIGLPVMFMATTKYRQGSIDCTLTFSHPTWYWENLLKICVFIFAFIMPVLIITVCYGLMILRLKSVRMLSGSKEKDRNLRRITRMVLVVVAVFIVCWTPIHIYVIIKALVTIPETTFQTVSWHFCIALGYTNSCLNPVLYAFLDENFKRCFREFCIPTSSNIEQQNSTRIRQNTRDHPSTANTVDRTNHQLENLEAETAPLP

`C[C@@H](Cc1ccsc1)NC(=O)NC[C@H](Cc1ccc(O)cc1)N(C)C` [PZM21, 1-[(S)-2-(Dimethylamino)-3-(4-hydroxyphenyl)propyl]-3-((S)-1-(thiophen-3-yl)propan-2-yl)urea] was tested, and the “optimization from initial docking hit compound 7” value (μOR [1]) was 1000 fold, the “improvement versus 12” value (μOR [1]; Ki and EC50 of (S,S)-21 against compound 12) was 40 fold and the constipation effect (C57BL/6J mice) was “reduced constipatory effects as compared to morphine; also recorded: substantially less than morphine”. The Ki (κOR) was 18 nM, the calcium release (μOR [2]) was “no activity was observed” and the “nociceptin receptor agonist activity (in words)” value (nociceptin receptor) was “no detectable”.
